From ChEMBL document CHEMBL4257591 (J Med Chem, 2018)
In brackets after ≈: the same amount, converted by molar mass. One block for each compound: values may come before it. Activity calls are given as the source filed them. The rule behind the calls is not given here. Starred links: 1 amine or outer side, 2 acyl side, 3 side chain; linkers in the order of their positions; H or OH if unused. Positions of bridges follow the written chain, without caps; N, C: chain ends. Non-standard residues stand in square brackets, D forms with d. Residues, ends and D or L forms follow the SMILES beside them. *: point of attachment. X1 = NC(=O)C[C@@H](C(=O)[*:2])N(c1ccc2c(c1)C(=O)OC21c2ccc(O)cc2Oc2cc(O)ccc21)[*:1]; FITC = O=C1OC2(c3ccc(O)cc3Oc3cc(O)ccc32)c2ccc(NC(=S)*)cc21; Ahx = NCCCCCC(=O)O

Key:
Escherichia coli [1] = test: Antimicrobial activity against Escherichia coli KCTC 1682 after 18 hrs; type: functional; conditions: KCTC 1682, 18 h
Salmonella typhimurium = test: Antimicrobial activity against Salmonella typhimurium KCTC 1926 after 18 hrs; type: functional, Salmonella enterica subsp. enterica serovar Typhimurium; conditions: Salmonella enterica, KCTC 1926, 18 h
Pseudomonas aeruginosa [2] = test: Antimicrobial activity against Pseudomonas aeruginosa KCTC 1637 after 18 hrs; type: functional; conditions: KCTC 1637, 18 h
Bacillus subtilis = test: Antimicrobial activity against Bacillus subtilis KCTC 3068 after 18 hrs; type: functional; conditions: KCTC 3068, 18 h
Staphylococcus aureus [3] = test: Antimicrobial activity against Staphylococcus aureus KCTC 1621 after 18 hrs; type: functional; conditions: KCTC 1621, 18 h
[4] = tested on: Staphylococcus epidermidis; test: Antimicrobial activity against Staphylococcus epidermidis KCTC 1617 after 18 hrs; type: functional; conditions: KCTC 1617, 18 h
Staphylococcus aureus [5] = test: Antimicrobial activity against methicillin-resistant Staphylococcus aureus CCARM 3089 after 18 hrs; type: functional; conditions: CCARM 3089, 18 h
Staphylococcus aureus [6] = test: Antimicrobial activity against methicillin-resistant Staphylococcus aureus CCARM 3090 after 18 hrs; type: functional; conditions: CCARM 3090, 18 h
Staphylococcus aureus [7] = test: Antimicrobial activity against methicillin-resistant Staphylococcus aureus CCARM 3095 after 18 hrs; type: functional; conditions: CCARM 3095, 18 h
Enterococcus faecium = test: Antimicrobial activity against vancomycin-resistant Enterococcus faecium ATCC 51559 after 18 hrs; type: functional; conditions: ATCC 51559, 18 h
Pseudomonas aeruginosa [8] = test: Antimicrobial activity against multidrug-resistant Pseudomonas aeruginosa CCARM 2095 after 18 hrs; type: functional; conditions: CCARM 2095, 18 h
Staphylococcus aureus [9] = test: Bactericidal activity against Staphylococcus aureus KCTC 1621 at MIC concentration after 30 mins by time kill assay; type: functional, organism-based
Escherichia coli [10] = test: Bactericidal activity against Escherichia coli KCTC 1682 at MIC concentration after 120 to 180 mins by time kill assay; type: functional, organism-based
Staphylococcus aureus [11] = test: Induction of cytoplasmic membrane depolarization in Staphylococcus aureus KCTC 1621 at 2 to 8 times MIC concentration by DiSC3(5)-dye based fluorescence spectrophotometry; type: functional, organism-based
Staphylococcus aureus [12] = test: Induction of membrane permeabilization in Staphylococcus aureus KCTC 1621 at 2 to 8 times MIC concentration up to 300 secs by SYTOX green uptake assay; type: functional, organism-based
Escherichia coli [13] = test: Induction of membrane permeabilization in Escherichia coli KCTC 1682 assessed as PI-positive cells at 12.5 uM after 1 to 2 hrs by propidium iodide-staining based flow cytometry (reference value: 2.36%); type: functional
DNA = test: Binding affinity to Escherichia coli pBR322 DNA assessed as inhibition of DNA migration at 16 uM after 1 hr by agarose gel electrophoresis and UV spectroscopy; type: nucleic-acid assay
[14] = Hemolytic activity in sheep RBC assessed as free hemoglobin level up to 256 uM by ELISA relative to control; type: ADME, cell-based, Ovis aries, Erythrocyte; conditions: sheep red blood cells (erythrocytes), read-out: Activity
RAW264.7 = test: Cytotoxicity against mouse RAW264.7 cells at 512 uM after 48 hrs by MTT assay; type: cell-based; conditions: raw264.7, 48 h
Staphylococcus aureus [15] = test: Drug penetration in Staphylococcus aureus KCTC 1621 at MIC concentration after 20 mins using FITC-labelled compounds by confocal laser-scanning microscopy; type: ADME, organism-based; conditions: in vivo
Escherichia coli [16] = test: Drug penetration in Escherichia coli KCTC 1682 at MIC concentration after 20 mins using FITC-labelled compounds by confocal laser-scanning microscopy; type: ADME, organism-based; conditions: in vivo
[17] = Drug uptake in Staphylococcus aureus KCTC 1621 cytoplasm at 30 uM after 20 mins using FITC-labeled compound by confocal laser-scanning microscopy; type: ADME
[18] = Drug uptake in Escherichia coli KCTC 1682 cytoplasm at 30 uM after 20 mins using FITC-labeled compound by confocal laser-scanning microscopy; type: ADME
Escherichia coli [19] = test: Antimicrobial activity against Escherichia coli KCTC 1682 after 18 hrs using FITC-labelled compound; type: functional
Staphylococcus aureus [20] = test: Antimicrobial activity against Staphylococcus aureus KCTC 1621 after 18 hrs using FITC-labelled compound; type: functional
Escherichia coli [21] = test: Induction of membrane permeabilization in Escherichia coli KCTC 1682 assessed as PI-positive cells at 16 uM after 1 to 2 hrs by propidium iodide-staining based flow cytometry (reference value: 2.36%); type: functional

SMILES: CC[C@H](C)[C@H](NC(=O)[C@@H](NC(=O)[C@H](Cc1cnc[nH]1)NC(=O)[C@H](CCCNC(=N)N)NC(=O)[C@H](C)NC(=O)[C@H](CCCNC(=N)N)NC(=O)[C@H](CC(C)C)NC(=O)[C@H](CO)NC(=O)[C@H](C)NC(=O)[C@H](CO)NC(=O)[C@H](CC(C)C)NC(=O)[C@@H](N)CC(N)=O)[C@@H](C)O)C(=O)N1CCC[C@H]1C(=O)N[C@@H](CCC(N)=O)C(=O)N[C@@H](CO)C(=O)N[C@@H](CCCNC(=N)N)C(=O)N[C@@H](CCCCN)C(=O)N[C@@H](Cc1ccccc1)C(=O)NCC(=O)N[C@@H](CCCNC(=N)N)C(=O)N[C@@H](CCCNC(=N)N)C(N)=O (H-NLSASLRARHTIPQSRKFGRR-NH2)
MIC (Escherichia coli [1]): 6.3 µM (≈ 15.4 µg/mL)
MIC (Salmonella typhimurium): 6.3 µM (≈ 15.4 µg/mL)
MIC (Pseudomonas aeruginosa [2]): 6.3 µM (≈ 15.4 µg/mL)
MIC (Bacillus subtilis): 12.5 µM (≈ 30.6 µg/mL)
MIC (Staphylococcus aureus [3]): 12.5 µM (≈ 30.6 µg/mL)
MIC [4]: 6.3 µM (≈ 15.4 µg/mL)
MIC (Staphylococcus aureus [5]): 25 µM (≈ 61.3 µg/mL)
MIC (Staphylococcus aureus [6]): 50 µM (≈ 123 µg/mL)
MIC (Staphylococcus aureus [7]): 25 µM (≈ 61.3 µg/mL)
MIC (Enterococcus faecium): 50 µM (≈ 123 µg/mL)
MIC (Pseudomonas aeruginosa [8]): 12.5 µM (≈ 30.6 µg/mL)
Activity (Staphylococcus aureus [9]): Active
Activity (Escherichia coli [10]): Active
Activity (Staphylococcus aureus [11]): inactive
Activity (Staphylococcus aureus [12]): inactive
Activity (Escherichia coli [13]): 3.66%
Activity (DNA): Active
hemolysis [14]: < 1%
Activity (RAW264.7): Non-Toxic

Drug uptake (Staphylococcus aureus [15]): Active
Drug uptake (Escherichia coli [16]): Active
Drug uptake [17]: Active
Drug uptake [18]: Active
SMILES: CC[C@H](C)[C@H](NC(=O)[C@@H](NC(=O)[C@H](Cc1cnc[nH]1)NC(=O)[C@H](CCCNC(=N)N)NC(=O)[C@H](C)NC(=O)[C@H](CCCNC(=N)N)NC(=O)[C@H](CC(C)C)NC(=O)[C@H](CO)NC(=O)[C@H](C)NC(=O)[C@H](CO)NC(=O)[C@H](CC(C)C)NC(=O)[C@H](CC(N)=O)Nc1ccc2c(c1)C(=O)OC21c2ccc(O)cc2Oc2cc(O)ccc21)[C@@H](C)O)C(=O)N1CCC[C@H]1C(=O)N[C@@H](CCC(N)=O)C(=O)N[C@@H](CO)C(=O)N[C@@H](CCCNC(=N)N)C(=O)N[C@@H](CCCCN)C(=O)N[C@@H](Cc1ccccc1)C(=O)NCC(=O)N[C@@H](CCCNC(=N)N)C(=O)N[C@@H](CCCNC(=N)N)C(N)=O (H-[X1]LSASLRARHTIPQSRKFGRR-NH2)
Activity (Escherichia coli [19]): Active
Activity (Staphylococcus aureus [20]): Active

Drug uptake [17]: Active
Drug uptake [18]: Active
MIC (Escherichia coli [19]; KCTC 1682, 18 h): 12.5 µM (≈ 37.3 µg/mL)
MIC (Staphylococcus aureus [20]; KCTC 1621, 18 h): 12.5 µM (≈ 37.3 µg/mL)
SMILES: CC[C@H](C)[C@@H]1NC(=O)[C@H]([C@@H](C)O)NC(=O)[C@H](Cc2cnc[nH]2)NC(=O)[C@H](CCCNC(=N)N)NC(=O)[C@H](C)NC(=O)[C@H](CCCNC(=N)N)NC(=O)[C@H](CC(C)C)NC(=O)[C@H](CO)NC(=O)[C@H](C)NC(=O)[C@@H](NC(=O)[C@H](CC(C)C)NC(=O)[C@H](CC(N)=O)NC(=O)CCCCCNC(=S)Nc2ccc3c(c2)C(=O)OC32c3ccc(O)cc3Oc3cc(O)ccc32)CSSC[C@@H](C(=O)N[C@@H](CCCNC(=N)N)C(=O)N[C@@H](CCCCN)C(=O)N[C@@H](Cc2ccccc2)C(=O)NCC(=O)N[C@@H](CCCNC(=N)N)C(=O)N[C@@H](CCCNC(=N)N)C(N)=O)NC(=O)[C@H](CCC(N)=O)NC(=O)[C@@H]2CCCN2C1=O ({FITC-Ahx}-NLCASLRARHTIPQCRKFGRR-NH2; disulfide 3-15)

SMILES: CC[C@H](C)[C@H](NC(=O)[C@H](CCCCN)NC(=O)[C@H](CCC(=O)O)NC(=O)[C@H](CCCCN)NC(=O)[C@H](CO)NC(=O)[C@H](CCCCN)NC(=O)[C@H](CCCNC(=N)N)NC(=O)[C@H](Cc1ccccc1)NC(=O)[C@H](Cc1ccccc1)NC(=O)[C@H](CC(=O)O)NC(=O)CNC(=O)[C@H](CC(C)C)NC(=O)[C@@H](N)CC(C)C)C(=O)NCC(=O)N[C@@H](CCCCN)C(=O)N[C@@H](CCC(=O)O)C(=O)N[C@@H](Cc1ccccc1)C(=O)N[C@@H](CCCCN)C(=O)N[C@@H](CCCNC(=N)N)C(=O)N[C@H](C(=O)N[C@H](C(=O)N[C@@H](CCC(N)=O)C(=O)N[C@@H](CCCNC(=N)N)C(=O)N[C@H](C(=O)N[C@@H](CCCCN)C(=O)N[C@@H](CC(=O)O)C(=O)N[C@@H](Cc1ccccc1)C(=O)N[C@@H](CC(C)C)C(=O)N[C@@H](CCCNC(=N)N)C(=O)N[C@@H](CC(N)=O)C(=O)N[C@@H](CC(C)C)C(=O)N[C@H](C(=O)N1CCC[C@H]1C(=O)N[C@@H](CCCNC(=N)N)C(=O)N[C@H](C(=O)N[C@@H](CCC(=O)O)C(=O)N[C@@H](CO)C(=O)O)[C@@H](C)O)C(C)C)[C@@H](C)CC)C(C)C)[C@@H](C)CC [CATHELICIDIN]
Activity (Escherichia coli [21]): 75.38%
